Results on three molecules are retold here after paper PMC2649369 (The Journal of neuroscience : the official journal of the …, 2007).

Test [1] has as its system GABAA receptors with phenylalanine mutations at β2Tyr157 and β2Tyr205. The conditions noted are these: phenylalanine mutants vs unmutated; ref Amin and Weiss, 1993; cited from earlier work.
Test [2] deals with α1β2 205-3,4,5-F3-Phe GABAA receptor. Briefly: GABA concentration-response, voltage-clamp in oocytes, β2 205-3,4,5-F3-Phe. Type of test: cell-based, human.
For test [3], the system named is α1β2 157-3,5-F2-Phe GABAA receptor. Briefly: GABA concentration-response, voltage-clamp in oocytes, β2 157-3,5-F2-Phe. Type of test: cell-based, human.
The test system of test [4] is α1 65-3,4,5-F3-Phe β2 GABAA receptor. As to the kind of experiment: GABA concentration-response, voltage-clamp in oocytes, α1 65-3,4,5-F3-Phe. The test is classed as cell-based, human.
In test [5] the test system is α1β2 97-3,5-F2-Phe GABAA receptor. As to the kind of experiment: GABA concentration-response, voltage-clamp in oocytes, β2 97-3,5-F2-Phe. The test is classed as cell-based, human.
For test [6], the system named is α1β2 157-3,4,5-F3-Phe GABAA receptor. Briefly: GABA concentration-response, voltage-clamp in oocytes, β2 157-3,4,5-F3-Phe. The test is classed as cell-based, human.
Test [7] relates to α1β2 97-3,4,5-F3-Phe GABAA receptor. Briefly: GABA concentration-response, voltage-clamp in oocytes, β2 97-3,4,5-F3-Phe. The test is classed as cell-based, human.
The subject of test [8] is α1β2 205-4-F-Phe GABAA receptor. As to the kind of experiment: GABA concentration-response, voltage-clamp in oocytes, β2 205-4-F-Phe. Type of test: cell-based, human.
Test [9] concerns α1β2 205-3,5-F2-Phe GABAA receptor. As to the kind of experiment: GABA concentration-response, voltage-clamp in oocytes, β2 205-3,5-F2-Phe. Type of test: cell-based, human.
Test [10] has as its system α1β2 157-4-Me-Phe GABAA receptor. As to the kind of experiment: GABA concentration-response, voltage-clamp in oocytes, β2 157-4-Me-Phe. The test is classed as cell-based, human.
For test [11], the target named is GABAA receptor α1Phe64 (α1Phe65 by human numbering) to Leu mutant. The conditions noted are these: cited from earlier work.

Take `CCCC(C)C1(CC)C(=O)NC(=O)NC1=O` (centres unmarked) [pentobarbital]: the “functional response on activation of the receptors” value in test [1] was “no change in functional response”.

Turning to `NCCCC(=O)O` [GABA], the “nH (Hill coefficient)” value was 2.5 in [2]; 2.0 in test [3]; 1.5 in test [4]; 1.1 in test [5]; 1.7 in test [6]; 1.9 in test [7]. In addition, the results for the “nH (Hill coefficient)” value in test [8], in [9] and in [10] were 1.9, 1.9 and 0.8, respectively.

On to `CN1CCc2cc3c(cc2[C@H]1[C@@H]1OC(=O)c2c1ccc1c2OCO1)OCO3` [bicuculline], for which the “change of IC50 on mutation” value in test [11] is listed as “increasing by similar amounts”.
